Like-named read-outs stand apart in the source and are kept apart here.
Legend:
M. tuberculosis = experiment: Bactec growth index assay of M. tuberculosis with rBPI23 and antibiotics (Example 5); assay type: cell-based
[1] = system: M. tuberculosis (strain H37Ra) induced production of TNF by monocytes/macrophages; assay type: cell-based, human; conditions: second test, 4 μg/ml

NNC(=O)c1ccncc1 [INH, isoniazid]
growth index (M. tuberculosis; INH alone, no BPI protein product, 0.006-0.05 μg/ml): increases generally began earlier and rose more steeply at lower doses than at higher doses

CO[C@H]1/C=C/O[C@@]2(C)Oc3c(C)c(O)c4c(O)c(c(/C=N/N5CCN(C)CC5)c(O)c4c3C2=O)NC(=O)/C(C)=C\C=C\[C@H](C)[C@H](O)[C@@H](C)[C@@H](O)[C@@H](C)[C@H](OC(C)=O)[C@@H]1C [RMP, rifampin]
growth index (M. tuberculosis; RMP 0.5 and 1.0 μg/ml, entire test period (day 2 to 18)): essentially no increase in growth index

B1: BPI holoprotein: recombinant human bactericidal/permeability-increasing holoprotein, SEQ ID NOS:1 and 2 (protein)
chain: MRENMARGPCNAPRWVSLMVLVAIGTAVTAAVNPGVVVRISQKGLDYASQQGTAALQKELKRIKIPDYSDSFKIKHLGKGHYSFYSMDIREFQLPSSQISMVPNVGLKFSISNANIKISGKWKAQKRFLKMSGNFDLSIEGMSISADLKLGSNPTSGKPTITCSSCSSHINSVHVHISKSKVGWLIQLFHKKIESALRNKMNSQVCEKVTNSVSSKLQPYFQTLPVMTKIDSVAGINYGLVAPPATTAETLDVQMKGEFYSENHHNPPPFAPPVMEFPAAHDRMVYLGLSDYFFNTAGLVYQEAGVLKMTLRDDMIPKESKFRLTTKFFGTFLPEVAKKFPNMKIQIHVSASTPPHLSVQPTGLTFYPAVDVQAFAVLPNSSLASLFLIGMHTTGSMEVSAESNRLVGELKLDRLLLELKHSNIGPFPVELLQDIMNYIVPILVLPRVNEKLQKGFPLPTPARVQLYNVVLQPHQNFLLFGADVVYK
inhibition of TNF production ([1]; 3×10^5 to 1×10^7 organisms): Lesser degrees of inhibition
inhibition of TNF production ([1]; highest concentration of organisms, one duplicate test): no inhibition at all
